What all share (assay): NCI tumour cell line growth inhibition, 48 h
In experiment [1] the test system is COLO 205 colon.
In experiment [2] the test system is HCT-15 colon.
Experiment [3] has as its system HOP-92 NSCLC.
Experiment [4] concerns HL-60(TB) leukemia.
The test system of experiment [5] is OVCAR-5 ovarian.
Experiment [6] relates to NCI-H460 lung.
Experiment [7] has as its system OVCAR-8 ovarian.
For experiment [8], the system named is SF-539 CNS.

The values that follow come from PubChem BioAssay (NCI).

SMILES strings stand for the structures.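 How tested: cells in 96-well plates exposed to compound for 48 hours at five concentrations. At the GI50, growth is halved. TGI: concentration producing complete growth inhibition.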

As for `O=C(Nc1cc([N+](=O)[O-])cc([N+](=O)[O-])c1)OC1C2CCC1C1OC1C2` (stereo not given), the TGI in experiment [1], in experiment [2], in experiment [3], in experiment [4], in experiment [5] and in experiment [6] was over 50 µM throughout. For the same compound, the TGI in experiment [7] and in experiment [8] was over 50 µM throughout.

`CC(C)(C)[Si](Nc1ccccc1)(c1ccccc1)c1ccccc1`: the TGI in experiment [1] was determined as 29.4 µM; in experiment [2] it was 28.4 µM; in experiment [3], 28.3 µM; in experiment [4] it was 31.3 µM; in experiment [6], 37.7 µM; in experiment [7] it was 34 µM. The compound further came in with a TGI in experiment [8] of 25 µM.

Take `O=C(Nc1ccccc1)OCc1nc2c([nH]1)C(=O)C=CC2=O`: the TGI in experiment [1] was found to be 3.94 µM; in experiment [2], 38 µM; in experiment [3], 45.1 µM; in experiment [4], 15.2 µM; in experiment [5] it was 36.8 µM; in experiment [6], 36.8 µM. The figures for the TGI in experiment [7] and in experiment [8] were 34 µM and over 100 µM, respectively.

Regarding `CCCCCC/C=C/CCCCCCCc1cccc(O)c1C(=O)O`, the TGI in experiment [1], in experiment [2], in experiment [4], in experiment [5], in experiment [6] and in experiment [7] was over 100 µM each time. Also, in experiment [8], the TGI is over 100 µM.

As for `O/N=C1/C(=C/c2ccc(Cl)cc2)CCCC1C(NO)c1ccc(Cl)cc1` (stereo not given), the TGI in experiment [1] turned out to be 42.3 µM; in experiment [2] it was 46.8 µM; in experiment [4], 43.3 µM; in experiment [6] it was 35.3 µM; in experiment [7] it was 55.3 µM; in experiment [8], 88.1 µM.

On to `C[C@@]1(CBr)C[C@@](C)(/C=C/Cl)[C@@H](Cl)C[C@H]1Cl`, for which the TGI in experiment [1] came out at 28.1 µM; in experiment [3], 27.7 µM; in experiment [4], 8.6 µM; in experiment [5] it was 26.3 µM; in experiment [7] it was 29.9 µM; in experiment [8] it was 27.9 µM.

For `CC(=O)OC1C/C(C)=C/[C@H](O)CC(C)/C=C/[C@@]2(C)CCC(C(C)(C)O)C12` (stereo not given in full), the TGI in experiment [1], in experiment [2], in experiment [3], in experiment [4], in experiment [5] and in experiment [6] was over 100 µM throughout. In addition, the TGI in experiment [7] and in experiment [8] was over 100 µM in each case.

Turning to `NC(=O)C12CCC1C1CCCCC12N1CCOCC1` (stereo not given), the TGI in experiment [2], in experiment [3], in experiment [4], in experiment [5], in experiment [6] and in experiment [7] was over 100 µM each time. In experiment [8], this compound displayed a TGI of over 100 µM.

For `CC(=O)Oc1cc(OC(C)=O)c2cc3c(cc2c1OC(C)=O)C(=O)C1(CCCC1)C3=O`, the TGI in experiment [1] stood at 33.9 µM; in experiment [2], 39.3 µM; in experiment [3] it was 28.6 µM; in experiment [4], 73.6 µM; in experiment [6] it was 33.1 µM; in experiment [7], 31.6 µM.

In the case of `COc1cc(C(=C2SCCS2)c2nccc3cc(OC)c(OC)cc23)c([N+](=O)[O-])cc1OC`, the TGI in experiment [1] is over 100 µM; in experiment [3], over 100 µM; in experiment [4] it was 94.6 µM; in experiment [5] it was over 100 µM; in experiment [7], over 100 µM; in experiment [8] it was over 100 µM.

Consider `O=c1cc(-c2ccc[nH]2)[nH]c2cc3c(cc12)OCO3`, for which the TGI is 60.3 µM in experiment [1]; over 100 µM in experiment [2]; 83.6 µM in experiment [4]; over 100 µM in experiment [6]; over 100 µM in experiment [7]; 84.6 µM in experiment [8].

For the compound `CN(/C(=N\O)c1ccccc1)c1ccccc1`, the TGI was over 100 µM in experiment [1]; 62.5 µM in experiment [3]; 48.7 µM in experiment [4]; over 100 µM in experiment [5]; over 100 µM in experiment [6]; 64.9 µM in experiment [7]. Besides, in experiment [8], the TGI was 49.6 µM.

Regarding `C[n+]1ccc2[nH]c3ccccc3c2c1`, the TGI in experiment [1], in experiment [2], in experiment [3], in experiment [4], in experiment [5] and in experiment [6] was over 100 µM in each case. Further, the TGI in experiment [7] and in experiment [8] was over 100 µM throughout.

In the case of `CN(C(=O)C1CC1)C1C2CN3CCC(O2)C13` (stereo not given), the TGI in experiment [1], in experiment [2], in experiment [3], in experiment [4], in experiment [5] and in experiment [6] was over 100 µM in each case. In experiment [8], this compound returned a TGI of over 100 µM.

As to `COC(=O)NN=C1C(C)(C)C(=NNC(=O)OC)C1(C)C`, the TGI in experiment [1] is over 56 µM; in experiment [2] it was over 100 µM; in experiment [3], over 100 µM; in experiment [4], over 100 µM; in experiment [5], over 100 µM; in experiment [6], over 100 µM. Moreover, the TGI was over 55.9 µM in experiment [7] and over 100 µM in experiment [8].

On to `N=C(N)Cn1cnc2ccccc21`, for which the TGI in experiment [1], in experiment [2], in experiment [4], in experiment [5], in experiment [6] and in experiment [7] was over 100 µM throughout. The TGI in experiment [8] was over 100 µM.

As for `O/N=C1/C(=C/c2ccccc2)CCCC1C(NO)c1ccccc1` (stereo not given), the TGI in experiment [1] was over 100 µM; in experiment [2] it was over 100 µM; in experiment [3], over 100 µM; in experiment [4] it was 5.03 µM; in experiment [5] it was over 100 µM; in experiment [6], over 100 µM. Also, the TGI in experiment [7] and in experiment [8] was over 100 µM throughout.

In the case of `CN(C)C(=S)/N=c1\ssc(=S)n1Cc1ccccn1`, the TGI is 21.4 µM in experiment [1]; over 100 µM in experiment [2]; 64.5 µM in experiment [3]; over 19.8 µM in experiment [4]; over 100 µM in experiment [5]; 16.8 µM in experiment [6]. Moreover, the TGI in experiment [7] is over 100 µM; in experiment [8], 45.5 µM.

For `CCN1CCC(O)(c2ccc(Cl)c(Cl)c2)C(C(=O)c2ccc(Cl)c(Cl)c2)C1` (stereo not given), the TGI is 31.7 µM in experiment [1]; 36.6 µM in experiment [2]; 29 µM in experiment [3]; 33.4 µM in experiment [4]; 35.7 µM in experiment [5]; 43.6 µM in experiment [6]. For the same compound, the TGI was 41 µM in experiment [7] and 32.1 µM in experiment [8].

In the case of `CCc1ccccc1NC(=O)C1=C(C)NC(C)=C(C(=O)Nc2ccccc2CC)C1c1ccc(NC(C)=O)cc1`, the TGI in experiment [1] is over 100 µM; in experiment [3], 90.6 µM; in experiment [4] it was 39.5 µM; in experiment [5] it was over 100 µM; in experiment [6] it was over 100 µM; in experiment [7] it was over 100 µM. The TGI in experiment [8] came to 68 µM.

For the compound `Oc1cccc2nc3cc(CN4CCOCC4)c(CN4CCOCC4)cc3nc12`, the TGI in experiment [1], in experiment [2], in experiment [3], in experiment [4], in experiment [5] and in experiment [6] was over 100 µM in each case. Besides, the TGI in experiment [7] and in experiment [8] was over 100 µM each time.

In the case of `CCCCCCCCCCCCCCCCCCOCC1(COP(=O)([O-])OCC[N+](C)(C)C)CCCO1` (stereo not given), the TGI in experiment [1] amounted to 3.63 µM; in experiment [3], 6.09 µM; in experiment [4], 5.24 µM; in experiment [5], 25.1 µM; in experiment [6], 3.23 µM; in experiment [7] it was 26.5 µM. This compound also had a TGI in experiment [8] of 29.4 µM.

With `CC(=O)NNc1nc(C)c(C(/C=C/c2ccc(Cl)cc2)=N/NC(=S)NN)s1`, the TGI in experiment [1], in experiment [2], in experiment [3], in experiment [4], in experiment [5] and in experiment [6] was over 100 µM each time. For the same compound, the TGI in experiment [7] and in experiment [8] was over 100 µM throughout.

In the case of `Cn1c(=O)c2[nH]cnc2n(CC(=O)O)c1=O`, the TGI in experiment [1], in experiment [2], in experiment [3], in experiment [5], in experiment [6] and in experiment [7] was over 100 µM in each case. For the same compound, the TGI in experiment [8] was over 100 µM.

`NC(=O)N/N=C1/CCCC/C1=C\c1ccccc1`: the TGI in experiment [1], in experiment [2], in experiment [3], in experiment [4], in experiment [5] and in experiment [6] was over 100 µM each time. In addition, the TGI in experiment [7] and in experiment [8] was over 100 µM throughout.

`CCC[CH2][Sn]1([CH2]CCC)[O]CC([CH2][Sn]([c]2ccccc2)([c]2ccccc2)[c]2ccccc2)[O]1` (stereo not given): the GI50 is 10.4 µM in experiment [1]; 13.2 µM in experiment [2]; 11.9 µM in experiment [3]; 2.47 µM in experiment [4]; 17 µM in experiment [5]; 15.2 µM in experiment [7]. Besides, the GI50 in experiment [8] was 15 µM. Further, the TGI in experiment [1] stood at 23 µM; in experiment [2] it was 26.4 µM; in experiment [3], 25.7 µM; in experiment [4], 8.38 µM; in experiment [5] it was 31 µM; in experiment [7] it was 34 µM. Further, the TGI in experiment [8] turned out to be 28.3 µM.

As to `CCCCCCCCCCCCOC(=S)NC`, the TGI is 32.5 µM in experiment [2]; 31.5 µM in experiment [3]; over 100 µM in experiment [4]; 25.3 µM in experiment [5]; 34 µM in experiment [6]; 32.9 µM in experiment [7]. This compound also registered a TGI in experiment [8] of 33.5 µM.

Take `O=C(O)C1=C(Cl)c2ccccc2S1(=O)=O`: the TGI in experiment [1], in experiment [2], in experiment [3], in experiment [4], in experiment [5] and in experiment [6] was over 100 µM throughout. This compound displayed a TGI in experiment [7] of over 100 µM.

In the case of `COc1cc(CCC(=O)NS(=O)(=O)c2ccccc2)cc(OC)c1OC`, the TGI in experiment [1], in experiment [3], in experiment [4], in experiment [5], in experiment [6] and in experiment [7] was over 100 µM in each case. In experiment [8], the TGI is over 100 µM.

For the compound `CC(=O)[CH-]C(=O)c1ccccc1.CC(=O)[CH-]C(=O)c1ccccc1.CC[O-].O=C1C=C([O-])C(=O)c2ccccc21.[Ti+4]`, the GI50 in experiment [1] was 26.9 µM; in experiment [2], 56.2 µM; in experiment [3], 26.2 µM; in experiment [4] it was 16.1 µM; in experiment [5], 95.3 µM; in experiment [6], 71.9 µM. The GI50 in experiment [7] and in experiment [8] was over 100 µM in each case. For the same compound, the TGI in experiment [1] was over 100 µM; in experiment [2], over 100 µM; in experiment [3] it was 82.8 µM; in experiment [4] it was 80 µM; in experiment [5], over 100 µM; in experiment [6] it was over 100 µM. The TGI in experiment [7] and in experiment [8] was over 100 µM in each case.

Take `O=C(Cc1nc2ccccc2s1)C(=O)Nc1ccc(Cl)cc1Cl`: the TGI in experiment [1], in experiment [2], in experiment [3], in experiment [5], in experiment [6] and in experiment [7] was over 100 µM each time. The compound also gave a TGI in experiment [8] of over 100 µM.

As for `CN(C)NC(=S)NC12CC3CC(CC(C3)C1)C2`, the TGI in experiment [1], in experiment [2], in experiment [3], in experiment [4], in experiment [5] and in experiment [6] was over 100 µM in each case. For the same compound, the TGI in experiment [7] and in experiment [8] was over 100 µM each time.

`COC(=O)C(C(=O)C(=O)Nc1ccc(C)cc1C)c1nc2ccc([N+](=O)[O-])cc2[nH]c1=O` (stereo not given): the TGI in experiment [1], in experiment [2], in experiment [3], in experiment [4], in experiment [5] and in experiment [6] was over 100 µM each time. Moreover, the TGI in experiment [7] and in experiment [8] was over 100 µM throughout.
